Data taken from US10568857B2, “Method of treating renal system damage” (The University of Utah Research Foundation, priority 2008, dated 2020).
“Also recorded” adds a separate entry of the source.

Legend:
[1] = system: B6129SF2/J mice (cisplatin-induced toxicity); experiment: Effects of OA-NO2 on cisplatin-induced toxicity in mice; assay type: in vivo, mouse; conditions: cisplatin 20 mg/kg i.p.
Experimental: FIG. 1. A bar graph showing the plasma concentrations of Blood Urea Nitrogen (BUN) in mice under the conditions indicated. N=5-6. Data are mean±n SE. B6129S2/J mice (male, 3-4-mo-old) received vehicle (Control) or a single i.p. injection of cisplatin alone (20 mg/kg in saline). After 20 min, the cisplatin group was randomly divided to receive an i.p injection of OA-NO2 (400 mg/kg in ethanol) or an equivalent amount of ethanol at 6-h intervals for 48 h.
Male 3-4-month-old B6129SF2/J mice were from Jackson Laboratories (Bar Harbor, Me.). All animals were housed in an air-conditioned room with a 12-hour light/dark cycle. All procedures and protocols were in accordance with guidelines set by the Laboratory Animal Care Committee at the University of Utah.
Protocol for testing effects of OA-NO2 on cisplatin-induced toxicity in B6129SF2/J mice. B6129S2/J mice (male, 3-4-mo-old) received vehicle (saline) or a single i.p. (intraperitoneal) injection of cisplatin alone (20 mg/kg in saline). After 20 minutes, the cisplatin group was randomly divided to receive an i.p. injection of OA-NO2 (400 mg/kg in ethanol) or an equivalent amount of ethanol at 6-hour intervals for 48 hours. The control group also received an i.p. injection of the equivalent amount of ethanol at the same frequencies. At the end of the experiments, under isoflurane anesthesia, blood was withdrawn from the vena cava using 1 cc insulin syringe and kidneys were harvested for analysis of morphology and gene expression.

[2] = system: BALB/c mice (ADR nephropathy); experiment: Adriamycin (ADR) nephropathy in mice, OA-NO2 pretreatment via osmotic mini-pump; assay type: in vivo, mouse; conditions: for albuminuria (urinary albumin): control 33.39±3.50; for plasma albumin: control 1.01±0.15
Experimental: Male BABL/C mice were purchased from the Jackson Laboratories (Bar Harbor, Me., USA). Mice were maintained in a temperature-controlled barrier facility with a 12:12-h light-dark cycle and were given free access to standard laboratory chow and tap water. Mice were randomized into three groups: 1) control, 2) Adriamycin (ADR), and 3) ADR+ nitro-oleic acid (OA-NO2). In Group 3, OA-NO2 (dissolved in ethanol) was administered at 5 mg/kg/day via subcutaneously implanted osmotic mini-pump and vehicle (ethanol) was given to the other two groups. This dose was chosen based a previous study (35). After 2 days of pretreatment with OA-NO2, Groups 2 and 3 received a single tail vein injection of ADR at 10 mg/kg. Group 1 received a single tail vein injection of saline. Twenty four-hour urine was collected with using metabolic cages. Seven days after ADR treatment, all mice were killed and kidneys were immediately harvested gene expression or histological analyses. All protocols employing mice were conducted in accordance the principles and guidance of the University of Utah Institutional Animal Care and Committee.
Urine samples were centrifuged for 5 minutes at 10,000 rpm. Blood samples from anesthetized mice were collected by puncturing the vena cava using a 1-ml insulin syringe containing 50 μl of 1 mM EDTA in the absence of protease inhibitors. Urine and plasma albumin was determined using a murine microalbuminuria enzyme-linked immunosorbent assay kit (Cat#1011, EXOCELL). Plasma triglyceride level was determined using a LabAssay Triglyceride ELISA Kit (Cat#290-63701, WAKO). Urine and plasma levels of urea were measured by Urea Nitrogen Direct kit (Cat#0580-250, Stanbio Laboratory), and urine and plasma levels of creatinine were measured by Creatinine Liquicolor kit (Cat#0420-250, Stanbio Laboratory).
Under anesthesia, kidneys were removed and fixed with 4% paraformaldehyde. The tissues were subsequently embedded in paraffin and 4-μm sections were cut and stained with periodic acid Schiff (PAS). Glomerular sclerosis was assessed as follows using a semiquantitative score: grade 0, normal appearance; grade I, involvement of up to 25% of the glomerulus; grade II, involvement of 25 to 50% of the glomerulus; grade III, involvement of 50 to 75% of the glomerulus; grade IV, involvement of 75 to 100% of the glomerulus. A glomerulosclerosis index (GSI) was calculated by multiplying the number of glomeruli with a sclerosis score of I by one, the number with a score of II by two, III by three, and IV by four. These values were summed and divided by the number of glomeruli assessed, including those with a sclerosis score of zero. The SI for each kidney specimen was a sum of the points from 30 glomeruli. Tubulointerstitial injury (defined as tubular atrophy, dilatation, thickening of the basement membrane, protein cast) by semiquantitative analysis. Thirty cortical fields from each animal were examined at ×200 magnification and graded according to a scale of 0 to 4: 0, no tubulointerstitial injury 1, <25% of the tubulointerstitium injured; 2, 25% to 50% of the tubulointerstitium injured; 3, 51% to 75% of the tubulointerstitium injured; and 4, 76% to 100% of the tubulointerstitium injured. All sections were examined in blind manner.
Immunohistochemical staining was performed. Anti-WT1 antibody was purchased from Dako (Mob437, Dako).
Total RNA was isolated using TRIzol (Invitrogen, Carlsbad, Calif.), and first-strand cDNAs were synthesized from 2 μg of total RNA in […] reaction using SuperScript (Invitrogen). The first strand cDNAs served as the template for quantitative PCR performed in Applied Biosystems 7900 Real Time PCR System using SYBR green PCR reagent (Applied Biosystems, Foster City, Calif., USA). The amplification was carried out for 40 cycles with conditions of 15-s denaturation at 95° C. […]

[3] = system: human proximal tubular cells (HK2); assay type: cell-based; conditions: pretreatment 1 h with 1.5 μM OA-NO2, then 24 h 1 μM cisplatin
Experimental: FIG. 6. Bar graphs show the effects of nitrated fatty acid OA-NO2 on cisplatin-induced apoptosis in vivo and in vitro. A), Caspase activity in the mouse kidney. N=5-6 in each group. B), Caspase activity in cultured human proximal tubular cells (HK2). Following pretreatment for 1 h with vehicle or 1.5 μM OA-NO2, the cells were exposed for 24 h to 1 μM cisplatin. N=3 in each group. Data are mean±SE. A single dose of i.p. injection of cisplatin induced renal dysfunction as indicated by the marked rise in plasma BUN (FIG. 1), accompanied by severe renal histological abnormalities characterized by distortion of the overall renal morphology, dilation of renal tubules, and appearance of protein cast (FIG. 2).

[4] = OA-NO2 400 mg/kg i.p. at 6-h intervals for 48 h
[5] = OA-NO2 400 mg/kg i.p. at 6-h intervals for 48 h, real time RT-PCR
[6] = posttreatment OA-NO2 400 mg/kg i.p. at 6-h intervals for 48 h
[7] = ADR+OA-NO2 group vs ADR, P<0.05
[8] = OA-NO2 treatment in ADR mice, P<0.05
[9] = OA-NO2 treatment in ADR mice, real-time PCR and Western blotting, P<0.05

nitrooleic acid [OA-NO2]
activity of caspase in the mouse kidney [1, 4]: attenuated or completely corrected | kidney thiobarbituric acid-reactive substances (TBARS) [1, 4]: attenuated or completely corrected | plasma level of MPO ([1]; OA-NO2 400 mg/kg i.p. at 6-h intervals for 48 h, EIA): reduces; also recorded: attenuated or completely corrected | kidney expression of NADPH oxidase subunit gp91phox [1, 5]: attenuated or completely corrected | kidney expression of NADPH oxidase subunit p47phox [1, 5]: attenuated or completely corrected | plasma BUN (renal function) [1, 6]: improves renal function; also recorded: markedly attenuated | renal histological abnormalities (renal morphology, dilation of tubules, protein cast) [1, 6]: improves renal morphology; also recorded: markedly attenuated | renal ZO-1 mRNA (qRT-PCR) ([2]; ADR+OA-NO2 group): significant elevation | number of WT1-positive cells (podocytes), immunohistochemistry ([2]; ADR+OA-NO2 group vs ADR group): partially restored | plasma BUN ([2]; ADR+OA-NO2 group vs ADR group): significantly attenuated | plasma creatinine ([2]; ADR+OA-NO2 group vs ADR group): significantly attenuated | renal gp91phox protein (immunoblot) ([2]; ADR+OA-NO2 group vs ADR, P<0.01): further confirmed at the protein level | renal mRNA expression of gp91phox [2, 7]: the increase was less | renal mRNA expression of p47phox [2, 7]: the increase was less | plasma triglyceride ([2]; ADR+OA-NO2 group, OA-NO2 5 mg/kg/day): 212.70 ± 39.22 mg/dL | albuminuria (urinary albumin) ([2]; ADR+OA-NO2 group, day 5 after ADR 10 mg/kg i.v., OA-NO2 5 mg/kg/day s.c. mini-pump from 2 days before): 342.40±33.26 μg/24 h | plasma albumin ([2]; ADR+OA-NO2 group, day 7 after ADR, OA-NO2 5 mg/kg/day): 0.58 ± 0.13 g/dL | mice having mild ascites at sacrifice ([2]; ADR+OA-NO2 mice, OA-NO2 5 mg/kg/day): 20% | glomerulosclerotic index (GSI), PAS staining ([2]; ADR+OA-NO2 vs ADR, P<0.05): ameliorates glomerulosclerosis; also recorded: marked reduction | albuminuria (urinary albumin), time course ([2]; ADR+OA-NO2 vs ADR, day 3 and day 7 after ADR injection): ameliorates albuminuria; also recorded: These changes were observed at day 3 and maintained at day 7 | tubulointerstitial lesion (TILI) ([2]; ADR+OA-NO2 vs ADR, day 8 after ADR injection): ameliorates | renal expression of IL-1β (qRT-PCR) ([2]; OA-NO2 in ADR mice): suppressed | renal expression of MCP-1 (qRT-PCR) ([2]; OA-NO2 in ADR mice): suppressed | renal expression of TNF-α (qRT-PCR) ([2]; OA-NO2 in ADR mice): suppressed | renal WT1 protein (immunoblotting) ([2]; OA-NO2 pretreatment in ADR mice, P<0.05): prevented the downregulation | renal desmin mRNA (qRT-PCR) ([2]; OA-NO2 treatment in ADR mice): prevented this increase | renal TGF-β mRNA expression [2, 8]: dramatic suppression | renal collagen III mRNA expression [2, 8]: dramatic suppression | renal fibronectin (FN) expression [2, 9]: prevented the up-regulation | renal α-SMA expression [2, 9]: prevented the up-regulation | kidney TBARS ([2]; OA-NO2 treatment vs ADR mice): trend of reduction of TBARS levels in response to OA-NO2 treatment but this did not reach a statistical significance | plasma TBARS ([2]; OA-NO2 treatment vs ADR mice): markedly attenuated | urinary TBARS ([2]; OA-NO2 treatment vs ADR mice): markedly attenuated | cisplatin-induced caspase activity [3]: almost completely normalized

COc1cccc2c1C(=O)c1c(O)c3c(c(O)c1C2=O)C[C@@](O)(C(=O)CO)C[C@@H]3O[C@H]1C[C@H](N)[C@H](O)[C@H](C)O1 [ADR, doxorubicin (Adriamycin), reference compound]
plasma triglyceride ([2]; ADR group (ADR 10 mg/kg alone)): 396.18 ± 70.94 mg/dL | plasma albumin ([2]; ADR group (ADR 10 mg/kg alone), day 7): 0.28 ± 0.08 g/dL | albuminuria (urinary albumin) ([2]; ADR group (ADR 10 mg/kg tail vein alone), day 5): 508.89±48.52 μg/24 h | mice with severe ascites at sacrifice ([2]; ADR mice (ADR 10 mg/kg alone)): Ninety
